Measurements reported in BigSolDB 2.1.

O=[N+]([O-])c1ccc(Cl)c(Cl)c1
solubility (mole fraction)
Settings	in cyclohexane	in ethyl acetate	in isopropanol	in n-butanol	in n-heptane	in n-hexane	in n-propanol	in tetrachloromethane
278.15 K	0.0568	0.249	0.0157	0.0389	0.0296	0.0293	0.0506	0.129
280.65 K	0.0632	0.332	0.0199	0.0443	0.0326	0.0363	0.0519	0.182
283.15 K	0.0703	0.405	0.0221	0.0486	0.0424	0.0425	0.0537	0.244
285.65 K	0.0774	0.463	0.0272	0.0542	0.0451	0.0476	0.0582	0.302
288.15 K	0.0865	0.541	0.0318	0.0593	0.0505	0.0518	0.0634	0.362
290.65 K	0.111	0.602	0.036	0.0665	0.0564	0.0572	0.0724	0.435
293.15 K	0.154	0.668	0.0439	0.0735	0.063	0.0634	0.0819	0.511
295.65 K	0.25	0.719	0.0615	0.0819	0.0662	0.0699	0.0935	0.572
298.15 K	0.343	0.778	0.0783	0.0999	0.0729	0.0824	0.115	0.644
300.65 K	0.511	0.822	0.0981	0.118	0.0908	0.115	0.139	0.722
303.15 K	0.751	0.866	0.124	0.136	0.132	0.173	0.173	0.792

O=[N+]([O-])c1cccc(Cl)c1Cl
solubility (mole fraction)
Settings	in cyclohexane	in ethyl acetate	in isopropanol	in n-butanol	in n-heptane	in n-hexane	in n-propanol	in tetrachloromethane
278.15 K	0.0137	0.212	0.00992	0.0254	0.00633	0.00535	0.0222	0.0619
280.65 K	0.0156	0.269	0.0116	0.0331	0.00962	0.00888	0.0247	0.0811
283.15 K	0.0184	0.331	0.0148	0.0401	0.0128	0.0112	0.0275	0.097
285.65 K	0.0199	0.388	0.0169	0.0453	0.0146	0.0134	0.0295	0.11
288.15 K	0.0212	0.435	0.0199	0.0501	0.017	0.015	0.0318	0.12
290.65 K	0.0266	0.486	0.0243	0.0527	0.0212	0.0172	0.035	0.13
293.15 K	0.0317	0.521	0.0286	0.0563	0.0251	0.0214	0.0387	0.15
295.65 K	0.0377	0.569	0.0336	0.0589	0.0276	0.0231	0.0421	0.194
298.15 K	0.0421	0.592	0.0394	0.0614	0.0322	0.0245	0.0456	0.241
300.65 K	0.0474	0.645	0.0452	0.0645	0.0345	0.0277	0.0511	0.312
303.15 K	0.0549	0.682	0.05	0.0679	0.038	0.031	0.0575	0.38
